The numbers were not newly measured in patent US20160310552A1, “NORTHERN WHITE KIDNEY BEAN EXTRACT AND CERATONIA SILIQUA EXTRACT IN COMBINATION WITH GREEN TEA EXTRACT IN THE TREATMENT OF EXCESS WEIGHT AND OBESITY” (priority 2015, published 2016), which cites them from elsewhere.

The conditions of series [1]: preliminary data; 10% with placebo.
The conditions of series [2]: during a 12 month period.

As to `CC(C)CC(N(C)C)C1(c2ccc(Cl)cc2)CCC1` (centres unmarked) [sibutramine], in series [1], the “Subjects who died or had a heart attack, a stroke or cardiac arrest” value is 11.4%. Further, the Weight loss in series [2] was 5-10%.
